Experimental data published in paper PMC12155840 (Molecules, 2025).

What was measured:
[1] = parameters: method as in PMID 19156843; details: isolated perfused rat livers; cited from earlier work
[2] = parameters: method as in PMID 16220575; details: human, oral 600 mg valerian extract; cited from earlier work
[3] = parameters: method as in PMID 22411722; details: rats; cited from earlier work
[4] = biological target: T1, human A1 adenosine receptor (hA1R) (Homo sapiens, UniProt P30542); test: cAMP inhibition assay, direct agonist mode, in CHO-K1-hA1R cells (Cisbio cAMP Gi kit, forskolin co-stimulation); details: 0.01 to 50 µM
T1 sequence (P30542 1-326): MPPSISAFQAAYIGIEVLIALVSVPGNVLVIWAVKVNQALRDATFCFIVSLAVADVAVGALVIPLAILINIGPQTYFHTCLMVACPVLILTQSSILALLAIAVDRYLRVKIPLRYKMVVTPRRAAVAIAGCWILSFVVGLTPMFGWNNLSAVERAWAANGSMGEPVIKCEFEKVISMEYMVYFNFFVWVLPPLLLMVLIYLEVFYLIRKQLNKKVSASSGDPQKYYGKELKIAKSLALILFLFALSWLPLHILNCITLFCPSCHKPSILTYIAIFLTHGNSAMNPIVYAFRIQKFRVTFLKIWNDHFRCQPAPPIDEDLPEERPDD

ECV304 human cell line = system: ECV304 human cell line; parameters: method as in PMID 18704879; details: ECV304 in vitro BBB model; cited from earlier work
human A1 receptor = biological target: T2, human A1 receptor (Homo sapiens, UniProt P30542); test: cAMP inhibition assay, allosteric mode with CPA as orthosteric agonist (DiscoverX HitHunter cAMP XS+), CHO-K1 cells overexpressing the human A1 receptor; operational allosteric ternary complex model; assay type: cell-based; details: for αβ / τB: antilogarithm; for Kb: antilogarithm of logKB; for Kd: operational model fit, read-out: logKB (converted)
T2 construct: host or cells: CHO-K1
T2 sequence (P30542 1-326): T1 sequence (P30542 1-326)
Protocol: Experiments with CPA as an agonist: In experiments with CPA as an agonist, inhibition of intracellular cAMP production in response to CPA stimulation of the receptor was determined using a functional assay in CHO-K1 cells overexpressing the human A1 receptor (Eurofins DiscoverX Corporation, Fremont, CA, USA). Cells were seeded in a total volume of 20 μL into white-walled, 384-well microplates and incubated at 37 °C for the appropriate time prior to testing.
Experiments with CPA as an agonist: cAMP production was measured using the DiscoverX HitHunter cAMP XS+ assay (Eurofins DiscoverX Corporation, Fremont, CA, USA). For allosteric modulation studies, cells were pre-incubated with allosteric modulators at various concentrations, followed by induction with the agonist CPA at its EC20 concentration (i.e., the concentration eliciting 20% of the maximal response). Media were aspirated from cells and replaced with 10 μL of HBSS (10 mM HEPES). Sample stocks were diluted to prepare a 4-fold higher (4x) concentration than the final in-well concentration. Next, 5 μL of the 4x compound was added to the cells and incubated at room temperature or 37 °C for 10 min. This was followed by the addition of 5 μL of the 4x EC20 agonist solution and further incubation for 30 min at 37 °C. To stimulate intracellular cAMP production and provide a dynamic range for detecting Gi-mediated inhibition, forskolin at its EC80 was included in all experiments. The final DMSO (vehicle) concentration was 1%. After incubation with compounds, the assay signal was generated by adding 5 uL of and cAMP XS+ Ab reagent followed by 20 μL of the cAMP XS+ ED/CL lysis cocktail and then incubating for 1 h. This was followed by adding 20 μL of the cAMP XS+ EA reagent and incubating for 2 h at room temperature. Chemiluminescent signals were detected using a PerkinElmer EnVision™ instrument. Compound activity was analyzed using the CBIS data analysis suite (ChemInnovation, San Diego, CA, USA). Control dose–response curves were generated using CPA as the agonist. Data were normalized to the maximal response observed with CPA (positive control) and the minimal response observed with vehicle (1% DMSO, negative control).
The operational allosteric ternary complex model (ATCM) accounts for the ability of an allosteric ligand to modify affinity and/or efficacy and even activate a receptor independently. This model describes a simplified case for positive allosteric modulators (PAMs), where the orthosteric ligand is a full agonist.
Explanation of parameters: A = Agonist concentration; B = Allosteric modulator concentration; KB = Dissociation constant for the modulator; αβ = Allosteric coupling constant; τB = Intrinsic activity of the modulator; EC50 = Half-maximal effective concentration of the agonist; n = Hill coefficient; Emax = Maximal system response; Basal = Basal activity (response in the absence of any ligand); Span = Emax − Basal (difference between maximum and basal activity).
The response curve Y is defined as follows: Y=Basal+Span·(Part1)/(Part1+Part2) where Part1=A·KB+αβ·B+τB·B·EC50^n Part2=(EC50^n·(KB+B))^n Span=Emax−Basal

[5] = biological target: T1, human A1 adenosine receptor (hA1R); test: cAMP inhibition assay, allosteric mode with adenosine as orthosteric agonist, CHO-K1-hA1R cells; operational allosteric ternary complex model; assay type: cell-based; parameters: host or cells: CHO-K1; details: for Logαβ (binding and activation cooperativity) / LogτB (operational efficacy as allosteric agonist) / αβ / τB / Kb / Kd: orthosteric agonist adenosine; for αβ / τB: antilogarithm; for Kb: antilogarithm of logKB; for Allosteric modulation of adenosine-induced cAMP inhibition (shift of concentration-response curve): test compound at 20 µM; for Kd: operational model fit, read-out: logKB (converted)
human A1 receptors = system: human A1 receptors; parameters: method as in PMID 30644086; details: 1, 10 and 30 µM, human A1 receptors in HEK293T cells; cited from earlier work
rat A1 receptors = system: rat A1 receptors; parameters: method as in PMID 30644086; details: 1, 10 and 30 µM, rat A1 receptors in HEK293T cells; cited from earlier work

CC1=C2[C@H](/C=C(\C)C(=O)O)CC[C@@H](C)[C@H]2CC1 [Valerenic Acid, Valerenic acid]
hepatic metabolism [1]: undergoes extensive hepatic metabolism, primarily through glucuronidation | half-life [2]: approximately 1.1 h | peak plasma concentration of valerenic acid (molar) [2]: ~ 10 nM | oral bioavailability [3]: 33.7% | Intrinsic agonist activity: effect on forskolin-stimulated cAMP levels in the absence of adenosine [4]: no significant reduction in cAMP levels | permeation of the BBB model relative to diazepam (ECV304 human cell line): significantly slower than diazepam | Logαβ (binding and activation cooperativity) (human A1 receptor): 1.36 | LogτB (operational efficacy as allosteric agonist) (human A1 receptor): 0.49 | αβ (human A1 receptor): 23.38 | τB (human A1 receptor): 3.14 | Kb (human A1 receptor): 17.4 µM | Logαβ (binding and activation cooperativity) [5]: 0.68 | LogτB (operational efficacy as allosteric agonist) [5]: 0.77 | αβ [5]: 4.79 | τB [5]: 5.98 | Kb [5]: 244 µM

COc1cc([C@H]2OC[C@H]3[C@@H]2CO[C@@H]3c2ccc(O[C@@H]3O[C@H](CO)[C@@H](O)[C@H](O)[C@H]3O)c(OC)c2)ccc1O[C@@H]1O[C@H](CO)[C@@H](O)[C@H](O)[C@H]1O [Pinoresinol diglucoside, pinoresinol-diglucoside]
Allosteric modulation of adenosine-induced cAMP inhibition (shift of concentration-response curve) [5]: no significant shift

Nc1scc(-c2cccc(C(F)(F)F)c2)c1C(=O)c1ccccc1 [VCP 171, reference compound]
effect on binding affinity of orthosteric agonists (human A1 receptors): enhanced the binding affinity of orthosteric agonists | effect on binding affinity of orthosteric agonists (rat A1 receptors): enhanced the binding affinity of orthosteric agonists | Logαβ (binding and activation cooperativity) (human A1 receptor): 1.11 | LogτB (operational efficacy as allosteric agonist) (human A1 receptor): 0.3 | αβ (human A1 receptor): 12.73 | τB (human A1 receptor): 1.99 | Kb (human A1 receptor): 10.8 µM | Kd (human A1 receptor): 11 µM | Logαβ (binding and activation cooperativity) [5]: −0.43 | LogτB (operational efficacy as allosteric agonist) [5]: 0.42 | αβ [5]: 0.37 | τB [5]: 2.66 | Kb [5]: 9.38 µM | Kd [5]: 9.55 µM

COc1ccc([C@@H]2CC(=O)c3c(O)cc(O[C@@H]4O[C@H](CO[C@@H]5O[C@@H](C)[C@H](O)[C@@H](O)[C@H]5O)[C@@H](O)[C@H](O)[C@H]4O)cc3O2)cc1O [Hesperidin]
Allosteric modulation of adenosine-induced cAMP inhibition (shift of concentration-response curve) [5]: slight leftward shift in the dose-response curve

COc1cc([C@H]2OC[C@](O)(Cc3ccc(O[C@@H]4O[C@H](CO)[C@@H](O)[C@H](O)[C@H]4O)c(OC)c3)[C@@H]2CO)ccc1O [Olivil-4-O-glucoside, (−)-olivil 4′-O-glucoside]
Allosteric modulation of adenosine-induced cAMP inhibition (shift of concentration-response curve) [5]: no significant shift

O=C(/C=C/c1ccc(O)c(O)c1)O[C@@H]1C[C@](O)(C(=O)O)C[C@@H](O)[C@H]1O [Chlorogenic acid, chlorogenic acid]
Allosteric modulation of adenosine-induced cAMP inhibition (shift of concentration-response curve) [5]: no significant shift

CC1=C2[C@@H]([C@H](C)CC[C@H]2/C=C(\C)C(=O)O)[C@H](O)C1 [hydroxyvalerenic acid]
permeation of the BBB model relative to diazepam (ECV304 human cell line): significantly slower than diazepam

O=C(O)/C=C/c1ccc(O)cc1 [Coumaric acid, coumaric acid]
Allosteric modulation of adenosine-induced cAMP inhibition (shift of concentration-response curve) [5]: no significant shift

COc1cc([C@H]2OC[C@]3(O)[C@@H](c4ccc(O)c(OC)c4)OC[C@H]23)ccc1O [8-Hydroxypinoresinol, 8-Hydroxy-pinoresinol]
Allosteric modulation of adenosine-induced cAMP inhibition (shift of concentration-response curve) [5]: no significant shift

COc1cc(C[C@]2(O)CO[C@@H](c3ccc(O)c(OC)c3)[C@@H]2CO)ccc1O [Olivil, (−)-olivil]
Allosteric modulation of adenosine-induced cAMP inhibition (shift of concentration-response curve) [5]: no significant shift

COc1cc([C@H]2OC[C@H]3[C@@H]2CO[C@@H]3c2ccc(O[C@@H]3O[C@H](CO)[C@@H](O)[C@H](O)[C@H]3O)c(OC)c2)ccc1O [Pinoresinol-4-O-glucoside, pinoresinol-4-O-Glucoside]
Allosteric modulation of adenosine-induced cAMP inhibition (shift of concentration-response curve) [5]: no significant shift

CC(=O)O[C@@H]1CC(C)=C2[C@H]1[C@H](C)CC[C@H]2/C=C(\C)C(=O)O [acetoxyvalerenic acid]
permeation of the BBB model relative to diazepam (ECV304 human cell line): significantly slower than diazepam

COc1ccc(/C=C/C(=O)O)cc1O [Isoferulic acid, trans-isoferulic acid]
Allosteric modulation of adenosine-induced cAMP inhibition (shift of concentration-response curve) [5]: no significant shift

COc1cc(/C=C/C(=O)O)ccc1O [Ferulic acid, trans-ferulic acid]
Allosteric modulation of adenosine-induced cAMP inhibition (shift of concentration-response curve) [5]: no significant shift

COc1cc([C@H]2OC[C@H]3[C@@H]2CO[C@@H]3c2ccc(O)c(OC)c2)ccc1O [Pinoresinol, (+)-pinoresinol]
Intrinsic agonist activity: effect on forskolin-stimulated cAMP levels in the absence of adenosine [4]: no significant reduction in cAMP levels | Logαβ (binding and activation cooperativity) (human A1 receptor): −0.1 | LogτB (operational efficacy as allosteric agonist) (human A1 receptor): 0.22 | αβ (human A1 receptor): 0.79 | τB (human A1 receptor): 1.66 | Kb (human A1 receptor): 316 µM | Kd (human A1 receptor): 316 µM | Logαβ (binding and activation cooperativity) [5]: 0.53 | αβ [5]: 3.42 | τB [5]: 0.93 | Kb [5]: 25.8 µM | Kd [5]: 26.3 µM
